# Paper PMC10535864, “Novel Aminopyrimidine-2,4-diones, 2-Thiopyrimidine-4-ones, and 6-Arylpteridines as Dual-Target Inhibitors of BRD4/PLK1: Design, Synthesis, Cytotoxicity, and Computational Studies” (Pharmaceuticals, 2023)
# Key:
# [1] = test system: Bcl-2 gene in MDA-MB-231 cells; assay: RT-PCR gene expression, Bcl-2; format: cell-based; conditions: 48 h treatment, control = 1
# Method: (§1) As well, there was an apparent increase in caspase-3, showing 3.9-fold more expression than in control cells.
# (§2) Fluorometric analysis was used to gauge the level of these genes’ expression. The procedure for the used kit was carried out in accordance with the manufacturer’s instructions, which are detailed in the Supplementary file. […]
# (§3) […] at pH 7.4). The flow cytometer was then used to examine the cells […]
# (§4) 1.4.Estimation of apoptotic and anti-apoptotic gene markers […]
# (§5) such as Bax and caspase-3, as well as anti-apoptotic genes such as Bcl-2, was studied using the BIORAD iScriptTM One-Step RT-PCR kit with SYBR® Green. MDA-MB-231 cells were cultured before being treated for 48 hours […]
# (§6) Fluorometric analysis was used to gauge the level of these genes' expression. The procedure for the used kit was carried out in accordance with the manufacturer's instructions, which are detailed as follows:
# (§7) 1.4.1. RNA isolation and reverse transcription m RNA isolation iscarried out using an RNeasy extraction kit,up to 1 x 10^7 cells, depending on the cell line. Cells are disrupted in RNeasy Lysis Buffer (RLT buffer), homogenized, then ethanol is added to the lysate, creating conditions that promote selective binding of RNA to the RNeasy membrane. […]
# [2] = test system: caspase-3 gene in MDA-MB-231 cells; assay: RT-PCR gene expression, caspase-3; format: cell-based; conditions: 48 h treatment, control = 1
# Method: as §1, §2, §3, §4, §5, §6, §7
# [3] = molecular target: T1, BRD4 (BD2) (Homo sapiens, UniProt O60885); assay: BRD4 inhibitory activity assay (AlphaLISA Bromodomain Assay); format: binding;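 further: in vitro inhibition of recombinant BRD4 BD2 bromodomain binding to a BET bromodomain ligand, read by AlphaLISA proximity signal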
# T1 construct: BRD4 (BD2) should be thawed on ice; purchased
# [4] = test system: MDA-MB-231 cells; assay: Apoptosis screening, annexin V-FITC/PI flow cytometry; format: cell-based; conditions: compared to non-treated control MDA-MB-231 cells
# From the text: (§8) The results are indicated as a dot plot graph with four quadrant images (Figure 5B). […] However, both compounds also raised the necrotic percent by 1.8- and 2.8-fold, respectively, compared to non-treated cells. Overall, these findings implied that compound 7 could exert anticancer activity by producing cell cycle arrest at the G2/M phase and inducing apoptosis.
# (§9) An Epics XL-MCL™ Flow Cytometer and Flowing software 2012 were used to count and analyze stained cells. The Supplementary file contains detailed descriptions of the flow cytometric analysis of cell-cycle distribution and cellular apoptosis. […]
# (§10) 1.3.Cell cycle and apoptosis screening […]
# (§11) investigated using an Ab-139418 propidium iodide flow cytometry kit and an Annexin-V assay and biparametric cytofluorimetric analysis, respectively, as instructed by the manufacturer. IC50s of both 7 and […]
# Cytometer and Flowing software were used to count and analyze stained cells. The Supplementary file contains detailed descriptions of the flow cytometric analysis of cell-cycle distribution and cellular apoptosis. […]
# 1.3.2. Apoptosis screening […]
# plate received 1 X 105 conc. breast cancer (MDA-MB-231) cells that were then incubated for 24 hours. The cells […]
# with PBS, and stained for 15 min at room temperature in the dark with annexin V-FITC and PI in binding buffer (10 […]
# µM HEPES, 140 µM NaCl, and 2.5 µM CaCl2 at pH 7.4). […]
# high-quality RNA iseluted in RNase-free water.
# 1.4.2. Master mix preparation
# All the following reagents were mixed together to give a totalvolume (50 μL). 2X SYBR® Green RT-PCR reaction mixture (25 μL), forward primer (10 μM) (1.5 μL), reverse primer (10 μM) (1.5 μL), nuclease-free H2O (11 μL), RNA template (1 pg to 100 ng totalRNA) (10 μL) and iScript reverse transcriptase for One-Step RT-PCR (1 μL).
# 1.4.3. Amplification protocol
# Incubate complete reaction mixture in a real-time thermal detection system (Rotorgene) as follows: cDNA synthesis:
# 10 min at 50 °C, iScript reverse transcriptase inactivation: 5 min at 95 °C, polymerase chain reaction (PCR) cycling and detection (30–45 cycles): 10 s at 95 °C and 30 s at 55 °C to 60 °C (data collection step) and melt curve analysis:
# 1 min at95 °C and 1 min at55 °C and 10 s at55 °C (80 cycles, increasing each by 0.5 °C each cycle).
# [5] = test system: MDA-MB-231 cells; assay: Cell cycle analysis, propidium iodide flow cytometry; format: cell-based; conditions: treated at IC50 concentration, 48 h, control 9.19%
# From the text: as §8, §9, §10, §11
# Cytometer and Flowing software were used to count and analyze stained cells. The Supplementary file contains detailed descriptions of the flow cytometric analysis of cell-cycle distribution and cellular apoptosis.
# 1.3.1. Cell cycle analysis […]
# a six-well plate containing MDA-MB-231 breast cancer cells was seeded with 1 X 10^5 cells per well and then […]
# Following that, cells were gathered and fixed in ice-cold 70% ethanol at 4 °C for 12 hours. The cells were then rinsed with cold Phosphate Buffer Saline (PBS) and incubated for 30 minutes at 37°C in 0.5 mL of PBS after the ethanol was removed. Propidium iodide was used to stain the cells for 30 min while they were in the dark. DNA content was determined using a flow cytometer. […]
# [6] = test system: BAX gene in MDA-MB-231 cells; assay: RT-PCR gene expression, BAX; format: cell-based; conditions: 48 h treatment, control = 1
# Method: as §1, §2, §3, §4, §5, §6, §7
# [7] = molecular target: human recombinant PLK1 (Homo sapiens, UniProt P53350); assay: PLK1 inhibitory activity assay (ADP-Glo Kinase Assay); format: biochemical; conditions: for %inh: PLK1 Lab Report
# Chain of human recombinant PLK1 (P53350 whole entry): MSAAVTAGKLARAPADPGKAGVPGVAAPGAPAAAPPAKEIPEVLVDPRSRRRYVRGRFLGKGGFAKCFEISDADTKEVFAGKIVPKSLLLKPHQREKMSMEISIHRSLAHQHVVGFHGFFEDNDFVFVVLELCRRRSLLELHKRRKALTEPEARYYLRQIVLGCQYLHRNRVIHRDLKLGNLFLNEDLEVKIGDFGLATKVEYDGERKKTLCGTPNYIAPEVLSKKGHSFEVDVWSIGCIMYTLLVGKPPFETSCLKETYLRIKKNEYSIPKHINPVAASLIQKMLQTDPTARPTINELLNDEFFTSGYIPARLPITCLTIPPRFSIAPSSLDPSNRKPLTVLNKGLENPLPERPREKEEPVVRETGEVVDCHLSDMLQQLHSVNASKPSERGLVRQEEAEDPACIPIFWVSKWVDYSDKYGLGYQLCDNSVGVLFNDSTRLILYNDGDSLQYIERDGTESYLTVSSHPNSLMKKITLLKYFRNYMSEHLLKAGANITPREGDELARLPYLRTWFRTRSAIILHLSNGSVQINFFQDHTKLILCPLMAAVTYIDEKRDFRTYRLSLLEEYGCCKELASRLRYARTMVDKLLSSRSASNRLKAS
# Method: The BRD4 and PLK1 inhibitory assays were carried out in vitro in accordance with the manufacturer’s instructions; BRD4 was assessed using AlphaLISA Bromodomain Assay Protocol, and PLK1 kinase was tested using the ADP-Glo™ Kinase Assay Protocol, as detailed in the Supplementary file. […]
# 1.2.2. PLK1 inhibitory activity assay
# The kinase reaction was performed with active human recombinant PLK1 and combined with the substrate dephosphorylated casein (positive control) using 1 X reaction buffer (40 mM Tris-HCl pH 7.4, 20 mM MgCl2, 0.1 mg/mL BSA, 1 mM DTT) and 20 μM ATP. The reaction was incubated at30°C for 45 minutes. The amount of ATP transferred was calculated using […] reagent from Promega according to the manufacturer’s instruction.
# A plate-reading luminometer isused to measure the luminescence. […]
smiles,measurement,setting,value
"CC[C@@H]1C(=O)N(C)c2cnc(Nc3ccc(C(=O)N[C@H]4CC[C@H](N5CCN(CC6CC6)CC5)CC4)cc3OC)nc2N1C(C)C [Volasertib, reference compound]",Gene expression Bcl-2 (anti-apoptotic gene),[1],0.351 fold
same,Gene expression Caspase-3 (apoptotic gene),[2],5.531 fold
same,IC50,[3],17 ± 1 nM
same,elevation in the late apoptotic stage,[4],~110.2 fold
same,increase in early apoptosis,[4],24.4 fold
same,increase in total apoptosis,[4],16.3 fold
same,rise of necrotic percent,[4],2.8 fold
same,DNA content % at cell cycle phase %G2/M,[5],17.38%
same,Gene expression BAX (apoptotic gene),[6],5.332 fold
same,%inh,[7]; conc 0.01 (unit not given),42%
same,%inh,[7]; conc 0.1 (unit not given),58%
same,%inh,[7]; conc 1 (unit not given),76%
same,%inh,[7]; conc 10 (unit not given),91%
same,%inh,[7]; conc 100 (unit not given),96%
same,IC50,"[7]; mean of three independent experiments, read-out: PLK1 IC50 ± SD",25 ± 1 nM
